Article PMC9120017, “Inhibition mechanism of the chloride channel TMEM16A by the pore blocker 1PBC” (Nature Communications, 2022)
Like-named read-outs stand apart in the source and are kept apart here.

Target: T1, mouse TMEM16A mutant Y598A (Mus musculus, UniProt Q8BHY3, Y598A)
T1 construct: expressed in transfected cells; host or cells: HEK293T
T1 sequence (Q8BHY3 1-960 Y598A): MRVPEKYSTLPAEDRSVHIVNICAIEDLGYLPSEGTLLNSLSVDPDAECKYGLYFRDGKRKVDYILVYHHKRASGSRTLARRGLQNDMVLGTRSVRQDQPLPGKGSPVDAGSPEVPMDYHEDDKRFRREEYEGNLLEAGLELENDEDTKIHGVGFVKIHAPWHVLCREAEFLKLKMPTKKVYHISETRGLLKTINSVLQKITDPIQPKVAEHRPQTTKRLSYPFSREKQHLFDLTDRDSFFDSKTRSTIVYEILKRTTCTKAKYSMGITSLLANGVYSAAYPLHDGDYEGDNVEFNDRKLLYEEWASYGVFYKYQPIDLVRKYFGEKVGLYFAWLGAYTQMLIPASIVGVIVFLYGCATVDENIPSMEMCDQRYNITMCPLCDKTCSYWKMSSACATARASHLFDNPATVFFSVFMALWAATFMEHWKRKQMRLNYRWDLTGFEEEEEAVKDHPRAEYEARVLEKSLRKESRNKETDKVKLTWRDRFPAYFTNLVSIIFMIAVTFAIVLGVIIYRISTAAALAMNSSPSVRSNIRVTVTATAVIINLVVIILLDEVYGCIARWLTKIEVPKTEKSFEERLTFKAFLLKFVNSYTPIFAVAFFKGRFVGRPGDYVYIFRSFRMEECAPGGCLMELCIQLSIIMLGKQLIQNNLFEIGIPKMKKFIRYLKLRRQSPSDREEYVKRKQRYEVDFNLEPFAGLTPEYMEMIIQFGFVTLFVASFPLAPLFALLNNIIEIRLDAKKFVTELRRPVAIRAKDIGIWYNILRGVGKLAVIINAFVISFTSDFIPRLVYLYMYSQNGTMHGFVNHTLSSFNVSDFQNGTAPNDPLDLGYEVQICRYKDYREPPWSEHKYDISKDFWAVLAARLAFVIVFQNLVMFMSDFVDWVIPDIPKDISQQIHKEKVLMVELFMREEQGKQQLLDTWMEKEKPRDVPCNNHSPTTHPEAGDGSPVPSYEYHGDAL
Test: Inside-out patch recording of 1PBC block, mutant Y598A
Assay type: cell-based
Settings: for remaining activity at 3 µM: 1PBC conc 3; for remaining activity at 3 µM / remaining activity at 10 µM / remaining activity at 30 µM: read-out: relative current in 1PBC (avr); for remaining activity at 10 µM: 1PBC conc 10; for remaining activity at 30 µM: 1PBC conc 30
Protocol: HEK293T cells (ATCC CRL-1573) were maintained in Dulbecco’s modified Eagle’s medium (DMEM; Sigma-Aldrich) supplemented with 10 U ml^−1 penicillin, 0.1 mg ml^−1 streptomycin (Sigma-Aldrich), 2 mM L-glutamine (Sigma-Aldrich), and 10% FBS (Sigma-Aldrich) in a humidified atmosphere containing 5% CO2 at 37 °C. HEK293S GnTI^− cells (ATCC CRL-3022) were maintained in HyClone HyCell TransFx-H medium (GE Healthcare) supplemented with 10 U ml^−1 penicillin, 0.1 mg ml^−1 streptomycin, 4 mM L-glutamine, 0.15% poloxamer 188 (Sigma-Aldrich), and 1% FBS in an atmosphere containing 5% CO2 at 185 rpm at 37 °C. The ac splice variant of mouse TMEM16A (UniProt ID: Q8BHY3), mouse TMEM16B (UniProt ID: Q8CFW1), or mouse TMEM16F (UniProt ID: Q6P9J9) bearing a 3C cleavage site, a Venus YFP, a Myc tag, and a Streptavidin-binding peptide (SBP) downstream of the open reading frame in a modified pcDNA3.1 vector (Invitrogen) were used as described previously[21],[31]. Mutations were introduced using a modified QuikChange method[58] and were verified by sequencing.
HEK293T cells were transfected with 3–4 μg DNA per 6 cm Petri dish using the calcium phosphate co-precipitation method and were used within 24–96 h after transfection. Recordings were performed on inside-out patches excised from HEK293T cells expressing the construct of interest. Patch pipettes were pulled from borosilicate glass capillaries (O.D. 1.5 mm, I.D. 0.86 mm, Sutter Instrument) and were fire-polished with a microforge (Narishige) before use. Pipette resistance was typically 3–8 MΩ when filled with the recording solutions detailed below. Seal resistance was typically 4 GΩ or higher. Voltage-clamp recordings were made using Axopatch 200B, Digidata 1550, and Clampex 10.7 (Molecular Devices). Analog signals were filtered with the in-built 4-pole Bessel filter at 10 kHz and were digitized at 20 kHz. Solution exchange was achieved using a gravity-fed system through a theta glass pipette mounted on an ultra-fast piezo-driven stepper (Siskiyou). […] All recordings were performed at 20 °C.
A symmetrical ionic condition was used throughout. Stock solution with Ca^2+-EGTA contained 150 mM NaCl, 5.99 mM Ca(OH)2, 5 mM EGTA, and 10 mM HEPES at pH 7.40. Stock solution with EGTA contained 150 mM NaCl, 5 mM EGTA, and 10 mM HEPES at pH 7.40. Free Ca^2+ concentrations were adjusted by mixing the stock solutions at the required ratios calculated using the WEBMAXC program (http://web.stanford.edu/~cpatton/webmaxcS.htm). Patch pipettes were filled with the stock solution with Ca^2+-EGTA, which has a free Ca^2+ concentration of 1 mM. 1PBC (ChemBridge) stock was reconstituted in anhydrous DMSO (Sigma-Aldrich) at 100 mM and stored at −20 °C. Working solutions with 1PBC were prepared by serial dilution. Unless otherwise stated, experiments were performed at a saturating Ca^2+ concentration as shown in Supplementary Table 1 and the primary data were corrected for current rundown as described previously[21],[25].
Concentration-response relations, obtained from the ratio of the I-V plots before and after the application of the blocker, were fitted to the Hill equation,1 I/Imax=1/1+IC50/[blocker]^h where I/Imax is the normalized current responses, IC50 defines the concentration at which inhibition is at its half-maximum, and h is the Hill coefficient.

- IC50 (0 mV, 2 µM Ca2+): 5 µM
- remaining activity at 3 µM (0 mV): 62.2%
- remaining activity at 10 µM (0 mV): 32.7%
- remaining activity at 30 µM (0 mV): 16.1%
- normalised current (avr) (1PBC 3, V 0 mV): -0.0008127
- normalised current (avr) (1PBC 3, V 20 mV): 0.0806
- normalised current (avr) (1PBC 3, V 40 mV): 0.1479
- normalised current (avr) (1PBC 3, V 60 mV): 0.2094
- normalised current (avr) (1PBC 3, V 80 mV): 0.2692
- normalised current (avr) (1PBC 3, V 100 mV): 0.3374
- normalised current (avr) (1PBC 3, V 120 mV): 0.4035
- normalised current (avr) (1PBC 3, V 140 mV): 0.5334
- normalised current (avr) (1PBC 3, V -20 mV): -0.0953
- normalised current (avr) (1PBC 3, V -40 mV): -0.2038
- normalised current (avr) (1PBC 3, V -60 mV): -0.3243
- normalised current (avr) (1PBC 3, V -80 mV): -0.4624
- normalised current (avr) (1PBC 3, V -100 mV): -0.5959
- normalised current (avr) (1PBC 3, V -120 mV): -0.7447
- normalised current (avr) (1PBC 3, V -140 mV): -0.8933
- normalised current (avr) (1PBC 10, V 0 mV): -0.0004268
- normalised current (avr) (1PBC 10, V 20 mV): 0.04176
- normalised current (avr) (1PBC 10, V 40 mV): 0.07281
- normalised current (avr) (1PBC 10, V 60 mV): 0.101
- normalised current (avr) (1PBC 10, V 80 mV): 0.1339
- normalised current (avr) (1PBC 10, V 100 mV): 0.1691
- normalised current (avr) (1PBC 10, V 120 mV): 0.2139
- normalised current (avr) (1PBC 10, V 140 mV): 0.279
- normalised current (avr) (1PBC 10, V -20 mV): -0.05063
- normalised current (avr) (1PBC 10, V -40 mV): -0.1149
- normalised current (avr) (1PBC 10, V -60 mV): -0.2039
- normalised current (avr) (1PBC 10, V -80 mV): -0.3102
- normalised current (avr) (1PBC 10, V -100 mV): -0.4329
- normalised current (avr) (1PBC 10, V -120 mV): -0.5455
- normalised current (avr) (1PBC 10, V -140 mV): -0.6513
- normalised current (avr) (1PBC 30, V 0 mV): -0.0002099
- normalised current (avr) (1PBC 30, V 20 mV): 0.02319
- normalised current (avr) (1PBC 30, V 40 mV): 0.04085
- normalised current (avr) (1PBC 30, V 60 mV): 0.05628
- normalised current (avr) (1PBC 30, V 80 mV): 0.08124
- normalised current (avr) (1PBC 30, V 100 mV): 0.1064
- normalised current (avr) (1PBC 30, V 120 mV): 0.1384
- normalised current (avr) (1PBC 30, V 140 mV): 0.17
- normalised current (avr) (1PBC 30, V -20 mV): -0.02219
- normalised current (avr) (1PBC 30, V -40 mV): -0.05555
- normalised current (avr) (1PBC 30, V -60 mV): -0.09343
- normalised current (avr) (1PBC 30, V -80 mV): -0.1537
- normalised current (avr) (1PBC 30, V -100 mV): -0.2141
- normalised current (avr) (1PBC 30, V -120 mV): -0.2888
- normalised current (avr) (1PBC 30, V -140 mV): -0.3717
- IC50 (20 mV, 2 µM Ca2+): 4.35 µM
- remaining activity at 3 µM (20 mV): 57.7%
- remaining activity at 10 µM (20 mV): 29.9%
- remaining activity at 30 µM (20 mV): 16.6%
- IC50 (40 mV, 2 µM Ca2+): 3.57 µM
- remaining activity at 3 µM (40 mV): 52.9%
- remaining activity at 10 µM (40 mV): 26.1%
- remaining activity at 30 µM (40 mV): 14.6%
- IC50 (60 mV, 2 µM Ca2+): 3.16 µM
- remaining activity at 3 µM (60 mV): 49.9%
- remaining activity at 10 µM (60 mV): 24.1%
- remaining activity at 30 µM (60 mV): 13.4%
- log-fold IC50 (change of mutant vs WT) (80 mV): 0.1976
- IC50 (80 mV, 2 µM Ca2+): 3.04 µM
- remaining activity at 3 µM (80 mV): 48.1%
- remaining activity at 10 µM (80 mV): 23.9%
- remaining activity at 30 µM (80 mV): 14.5%
- IC50 (100 mV, 2 µM Ca2+): 3.06 µM
- remaining activity at 3 µM (100 mV): 48%
- remaining activity at 10 µM (100 mV): 24.1%
- remaining activity at 30 µM (100 mV): 15.1%
- IC50 (120 mV, 2 µM Ca2+): 3.13 µM
- remaining activity at 3 µM (120 mV): 47.7%
- remaining activity at 10 µM (120 mV): 25.3%
- remaining activity at 30 µM (120 mV): 16.4%
- IC50 (140 mV, 2 µM Ca2+): 3.81 µM
- remaining activity at 3 µM (140 mV): 53.3%
- remaining activity at 10 µM (140 mV): 27.9%
- remaining activity at 30 µM (140 mV): 17%
- IC50 (-20 mV, 2 µM Ca2+): 5.71 µM
- remaining activity at 3 µM (-20 mV): 66.7%
- remaining activity at 10 µM (-20 mV): 35.5%
- remaining activity at 30 µM (-20 mV): 15.5%
- IC50 (-40 mV, 2 µM Ca2+): 7.02 µM
- remaining activity at 3 µM (-40 mV): 71.1%
- remaining activity at 10 µM (-40 mV): 40.1%
- remaining activity at 30 µM (-40 mV): 19.4%
- IC50 (-60 mV, 2 µM Ca2+): 8.86 µM
- remaining activity at 3 µM (-60 mV): 75.3%
- remaining activity at 10 µM (-60 mV): 47.3%
- remaining activity at 30 µM (-60 mV): 21.7%
- IC50 (-80 mV, 2 µM Ca2+): 11.2 µM
- remaining activity at 3 µM (-80 mV): 79.4%
- remaining activity at 10 µM (-80 mV): 53.2%
- remaining activity at 30 µM (-80 mV): 26.4%
- IC50 (-100 mV, 2 µM Ca2+): 13.5 µM
- remaining activity at 3 µM (-100 mV): 81.5%
- remaining activity at 10 µM (-100 mV): 59.2%
- remaining activity at 30 µM (-100 mV): 29.3%
- IC50 (-120 mV, 2 µM Ca2+): 15.9 µM
- remaining activity at 3 µM (-120 mV): 85.1%
- remaining activity at 10 µM (-120 mV): 62.4%
- remaining activity at 30 µM (-120 mV): 33%
- IC50 (-140 mV, 2 µM Ca2+): 18 µM
- remaining activity at 3 µM (-140 mV): 87.9%
- remaining activity at 10 µM (-140 mV): 64.1%
- remaining activity at 30 µM (-140 mV): 36.6%
- IC50 (Y598A, V 0 mV): 5 µM
- IC50 (Y598A, V 20 mV): 4.35 µM
- IC50 (Y598A, V 40 mV): 3.57 µM
- IC50 (Y598A, V 60 mV): 3.16 µM
- IC50 (Y598A, V 80 mV): 3.04 µM
- IC50 (Y598A, V 100 mV): 3.06 µM
- IC50 (Y598A, V 120 mV): 3.13 µM
- IC50 (Y598A, V 140 mV): 3.81 µM
- IC50 (Y598A, V -20 mV): 5.71 µM
- IC50 (Y598A, V -40 mV): 7.02 µM
- IC50 (Y598A, V -60 mV): 8.86 µM
- IC50 (Y598A, V -80 mV): 11.2 µM
- IC50 (Y598A, V -100 mV): 13.5 µM
- IC50 (Y598A, V -120 mV): 15.9 µM
- IC50 (Y598A, V -140 mV): 18 µM
SMILES: N#Cc1c(C(F)(F)F)cc(O)n2c1nc1ccccc12 [1PBC]
